Molecules are shown by their SMILES.

The target in one experiment is T1, hOCT2 (SLC22A2) (Homo sapiens, UniProt O15244, S270A).
T1 construct: expressed in transfected cells; host or cells: CHO cells, stably transfected; membrane fragments immobilised on the sensor chip
T1 sequence (O15244 1-555 S270A): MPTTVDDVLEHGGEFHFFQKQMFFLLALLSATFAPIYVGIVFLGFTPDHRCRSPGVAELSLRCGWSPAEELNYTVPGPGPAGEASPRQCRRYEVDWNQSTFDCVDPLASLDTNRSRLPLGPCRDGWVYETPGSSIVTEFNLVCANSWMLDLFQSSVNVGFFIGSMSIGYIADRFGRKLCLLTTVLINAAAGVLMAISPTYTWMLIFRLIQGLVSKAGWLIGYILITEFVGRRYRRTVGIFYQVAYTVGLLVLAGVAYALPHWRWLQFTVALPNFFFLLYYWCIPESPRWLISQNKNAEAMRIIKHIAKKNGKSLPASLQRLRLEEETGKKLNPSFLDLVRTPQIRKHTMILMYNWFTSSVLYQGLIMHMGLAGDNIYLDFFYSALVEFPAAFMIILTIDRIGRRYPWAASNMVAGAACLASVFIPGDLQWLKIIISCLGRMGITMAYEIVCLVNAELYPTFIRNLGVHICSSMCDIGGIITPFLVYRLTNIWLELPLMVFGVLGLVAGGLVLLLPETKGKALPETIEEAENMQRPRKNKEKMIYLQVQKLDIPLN
As to the kind of experiment: cell free electrophysiological sensor chip assay, inhibition of choline-induced current, hOCT2 CHO cell membranes. It counts as biochemical. Conditions: 30 mM choline as substrate (FIG. 4B legend), pH 7.4, read-out: IC50 of TBA of hOCT2. The method, then: IC50 was determined using 30 mM choline as a substrate.
(§1) After harvesting the cells from a virally transfected Sf9 or HighFive suspension cell line or an stably transfected adherent CHO cell line via centrifugation, aliquots of approx. 2 g wet weight cells were quick-frozen in liquid nitrogen and stored at −80° C. for further preparation.
(§2) The membrane fragments were prepared by cell rapture. Cells were homogenized by the nitrogen cell disruption method utilizing a Parr Cell Disruption Bomb (Parr Instrument Company, Illinois, USA) or the Dounce homogenisation method utilizing a Dounce Homogenisator (7 ml from Novodirect GmbH, Kehl/Rhein, Germany) and the suspension centrifuged 10 min at 4° C. and 680 g and 10 min at 4° C. and 6100 g. The supernatants were collected and again centrifuged for 1 h at 4° C. and 100,000 g in SW41 swing-out rotor.
(§3) Biosensors were prepared according to the following protocol. • 1. Addition of 30 μl mercaptane solution (2% mercaptane in isopropanol) to biosensor • 2. Incubation time: 15 min • 3. Rinsing with 3×70 μl isopropanol • 4. Vacuum dry biosensor • 5. Drying time: 30 min • 6. […]
(§4) For the determination of its activity, the OCT protein was treated consecutively with a washing, non-activating and activating solution and the electrical current was measured when changing from charging to activating treatment. […]

For the next experiment, the target named is T2, rOCT2 (slc22a2) (Rattus norvegicus, UniProt Q9R0W2).
T2 construct: expressed in transfected cells; host or cells: CHO cells, stably transfected; membrane fragments immobilised on the sensor chip
T2 sequence (Q9R0W2 with tags, fused parts or gaps limits assumed): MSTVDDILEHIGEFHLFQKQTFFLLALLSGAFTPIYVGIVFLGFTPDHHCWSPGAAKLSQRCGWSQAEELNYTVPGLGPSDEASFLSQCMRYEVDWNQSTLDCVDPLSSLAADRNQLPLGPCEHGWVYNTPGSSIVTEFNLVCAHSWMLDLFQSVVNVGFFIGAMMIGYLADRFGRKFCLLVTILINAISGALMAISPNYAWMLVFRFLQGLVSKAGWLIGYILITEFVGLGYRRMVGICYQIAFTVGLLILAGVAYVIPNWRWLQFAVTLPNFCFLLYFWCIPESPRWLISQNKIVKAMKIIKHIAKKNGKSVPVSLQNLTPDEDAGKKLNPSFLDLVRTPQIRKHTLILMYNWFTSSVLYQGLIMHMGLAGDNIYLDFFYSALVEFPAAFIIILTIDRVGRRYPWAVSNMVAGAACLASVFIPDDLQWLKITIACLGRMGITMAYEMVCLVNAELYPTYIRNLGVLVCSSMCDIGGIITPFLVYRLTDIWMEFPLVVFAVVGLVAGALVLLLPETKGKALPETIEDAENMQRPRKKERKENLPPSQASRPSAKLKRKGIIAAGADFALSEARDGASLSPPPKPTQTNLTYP
As to the kind of experiment: cell free electrophysiological sensor chip assay, inhibition of choline-induced current, rOCT2 CHO cell membranes. It counts as biochemical. The settings on record: 10 mM choline as substrate, pH 7.4, read-out: IC50 of TBA of rOCT2. The method, then: IC50 was determined using 10 mM choline as a substrate.
as §1, §2, §3, §4

What is called IC50 is the point on the concentration scale where inhibition reaches its midpoint. For the compound `CCCC[N+](CCCC)(CCCC)CCCC` [TBA], the results for the IC50 on hOCT2 (SLC22A2) and at rOCT2 (slc22a2) were 2.9 µM and 3.5 µM, respectively.

The record behind these values is patent US20090184006A1, “METHOD FOR THE DETERMINATION OF THE ACTIVITY OF THE ORGANIC CATION TRANSPORTER” (SANOFI-AVENTIS, priority 2006, published 2009).
